Test [1] addresses T1, papain (Carica papaya, UniProt P00784).
T1 construct: To solutions of active papain (final concentration: 0.05 mM); purchased Sigma Chemical Co., St. Louis, MO, USA
T1 sequence (P00784 134-345): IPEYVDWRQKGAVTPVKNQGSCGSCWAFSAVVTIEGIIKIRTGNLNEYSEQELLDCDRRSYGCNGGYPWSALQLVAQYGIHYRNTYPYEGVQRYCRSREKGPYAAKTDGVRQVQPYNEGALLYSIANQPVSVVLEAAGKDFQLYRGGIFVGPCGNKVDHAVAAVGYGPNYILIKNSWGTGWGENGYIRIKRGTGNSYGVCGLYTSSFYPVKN
Description: Thermodynamics analysis of papain inhibition (Van't Hoff). To be noted: Value at 37°C. It counts as biochemical. As for the experimental part:
Free energy changes of inhibition of papain against 1- substituted pyridylimidazo[1,5-a] pyridine derivatives (ΔG) were determined by the equation, [drawing 1] (1)
Temperature dependence of the inhibition constants was used to determine the thermodynamic parameters. Changes in enthalpy (ΔH) were determined from the Van’t Hoff plots by using the equation, [drawing 2] (2)
Where ΔH is enthalpy change, R is gas constant, ΔS is entropy change and T is the absolute temperature. The entropy change was obtained from the equation, [drawing 3] (3)

Test [2] addresses T1, papain. Description: Cysteine protease inhibitory activity, papain with Bz-DL-Arg-pNA substrate. It counts as biochemical. As for the experimental part:
The capacity of the 1-pyridylimidazo[1,5-a]pyridine derivatives to inhibit cysteine proteases was tested using papain as the model enzyme. The proteolytic activity of the reaction mixtures was determined using Bz-DL-Arg-pNA as the chromogenic substrate. To solutions of active papain (final concentration: 0.05 mM) were added concentrated solutions of the different derivatives to final concentrations of 0.2 mM. […] The same procedure was used at 32°C and 42°C for thermodynamics studies. The kinetic parameters for the substrate hydrolysis were determined by measuring the initial rate of enzymatic activity. The inhibition constant Ki was determined by Dixon method and also by the Lineweaver–Burk equation. The Km value was calculated from the double-reciprocal equation by fitting the data into the computer software Origin 6.1. The Lineweaver–Burk plot was used to determine the types of inhibition. For the kinetic analysis and rate constant determinations, the assays were carried out in triplicate, and the average value was considered throughout this work.

In test [3] the test system is Bacillus spp. (ATCC-14593). The experiment in a line: MIC, micro dilution method. It is filed as cell-based. To be noted: ATCC14593; Bacillus sp.
Test [4] relates to Staphylococcus aureus (ATCC-25923). The experiment in a line: MBC, sub cultivation from MIC plate. It is filed as cell-based. To be noted: ATCC25923, S. aureus. As for the experimental part:
(§1) After having determined the MICs, bacterial strains from the wells of the microtitre plate with no visible bacterial growth were removed for serial sub cultivation of 2 µl into another new microtitre plate containing 100 µl of broth per well and further incubated for 24 h. The lowest concentration with no visible growth was defined as MBC [28], indicating 99.5% killing of the original inoculum. The absorbance of each well was measured at a wavelength of 620 nm by Microplate Manager 4.0 (Bio-Rad laboratories) and compared with a blank. Solvent (DMSO) was used as a negative control. Three replicates were done for each compound and experiment was repeated two times.

The subject of test [5] is Bacillus spp. (ATCC-14593). The experiment in a line: MBC, sub cultivation from MIC plate. It counts as cell-based. To be noted: ATCC14593, Bacillus sp. As for the experimental part: as §1
Test [6] deals with Proteus vulgaris (ATCC-29905). Description: MBC, sub cultivation from MIC plate. It is filed as cell-based. To be noted: ATCC29905, P. vulgaris. As for the experimental part:
as §1

Test [7] deals with Pseudomonas aeruginosa (ATCC-27853). The experiment in a line: MBC, sub cultivation from MIC plate. It is filed as cell-based. As for the experimental part: as §1
The test system of test [8] is Escherichia coli (ATCC-25922). The experiment in a line: MBC, sub cultivation from MIC plate. It is filed as cell-based. To be noted: ATCC25922, E. coli. As for the experimental part:
as §1

Test [9] relates to Staphylococcus aureus (ATCC-25923). The experiment in a line: MIC, micro dilution method. It is filed as cell-based. To be noted: ATCC25923, S. aureus. As for the experimental part:
(§2) The disk diffusion method was used for the preliminary antibacterial evaluation of 1-pyridylimidazo[1,5-a]pyridine derivatives. The MIC50 of these derivatives, showing inhibition in the preliminary tests, were further determined by the microtitre plate technique using micro dilution method. In brief, the bacterial strains (S. aureus, P. vulgaris, Group D Streptococci, Bacillus sp., E. coli, P. aeruginosa and S. morganii)) were grown and diluted to 2×10^5 colony-forming units (CFU)/ml in sodium phosphate buffer (SPB) containing 0.03% Luria–Bertani (LB) broth. The synthesized derivatives were dissolved in DMSO and their serial dilution was performed in 50 µL of LB medium in 96-well microtitre plate to achieve the required concentrations (0.1–10 µg/ml) with bacterial inoculums (5×10^4 CFU per well). DMSO was taken as negative control and Ceftriaxone and clotrimazole were taken as positive control. After incubation at 37°C overnight, the MICs were taken as the lowest inhibitor concentration at which the bacterial growth was inhibited. The average of three values was calculated and that was the MIC for the test material and bacterial strain. […]

Test [10] relates to Bacillus spp. (ATCC-14593). The experiment in a line: MIC, micro dilution method. It is filed as cell-based. To be noted: ATCC14593; Bacillus sp. As for the experimental part:
as §2
The source holds these as a separate data set.

The test system of test [11] is Proteus vulgaris (ATCC-29905). Description: MIC, micro dilution method. To be noted: ATCC29905, P. vulgaris. It counts as cell-based. As for the experimental part: as §2
Test [12] concerns Pseudomonas aeruginosa (ATCC-27853). Description: MIC, micro dilution method. It counts as cell-based. To be noted: ATCC27853. As for the experimental part: as §2
Test [13] concerns Escherichia coli (ATCC-25922). The experiment in a line: MIC, micro dilution method. It is filed as cell-based. To be noted: ATCC25922, E. coli. As for the experimental part:
as §2

In brackets after ≈: the same amount, converted by molar mass. Several values for one entry are separate records, joined by “and”; a condition that tells them apart may be missing. Equal values may be shown once. Read-outs that look alike come from different tables or passages of the source.

As for `COc1ccc(-c2nc(-c3ccccn3)c3ccccn23)cc1` [Compound 3b, 1-(2-pyridyl)-3-(4-methoxyphenyl) imidazo[1,5-a]pyridine], the “ΔG (free energy of binding)” value on papain [1] was −6.55 Kcalmol^−1 and −6.55(±0.33) Kcalmol^−1. The “ΔS (entropy change)” value on papain [1] is 71.4 (±2.46) Jmol-K^−1. In addition, on papain [1] (Van't Hoff plot), the “ΔH (enthalpy change)” value is recorded as −5.3(±0.80) KJmol^−1. For the same compound, the Ki at papain [2] (32°C) was determined as 26.2 µM; at papain [2] (37°C) it was 23.2 µM; on papain [2] (42°C) it was 21.1 µM. Moreover, the Type of inhibition result on papain [2] (Lineweaver–Burk plot) is reported as “Competitive”. Also, the IC50 against papain [2] (papain) came to 21.2 µM. The MIC90 in [3] came to 1.7 µg/mL (≈ 5.64 µM); in test [9] it was 1.9 µg/mL (≈ 6.3 µM); in test [11], 1.5 µg/mL (≈ 4.98 µM); in test [12] it was 1.8 µg/mL (≈ 5.97 µM); in test [13], 1.8 µg/mL (≈ 5.97 µM). Also, the MBC in [4] (read-out: MBC50) is 2.3 µg/mL (≈ 7.63 µM); in test [4] (read-out: MBC90), 4.5 µg/mL (≈ 14.9 µM); in test [5] (read-out: MBC50), 1.7 µg/mL (≈ 5.64 µM); in [5] (read-out: MBC90) it was 3.2 µg/mL (≈ 10.6 µM); in test [6] (read-out: MBC50), 1.6 µg/mL (≈ 5.31 µM); in test [6] (read-out: MBC90), 3.2 µg/mL (≈ 10.6 µM). Also, the MBC in [7] (ATCC27853, read-out: MBC50) stood at 2.1 µg/mL (≈ 6.97 µM); in [7] (ATCC27853, read-out: MBC90) it was 4 µg/mL (≈ 13.3 µM); in test [8] (read-out: MBC50) it was 1.9 µg/mL (≈ 6.3 µM); in test [8] (read-out: MBC90), 2.9 µg/mL (≈ 9.62 µM). For the same compound, the MIC50 came out at 1 µg/mL (≈ 3.32 µM) in [9]; 0.9 µg/mL (≈ 2.99 µM) in [10]; 0.8 µg/mL (≈ 2.65 µM) in [11]; 1 µg/mL (≈ 3.32 µM) in test [12]; 1 µg/mL (≈ 3.32 µM) in test [13].
For the compound `Clc1ccccc1C(c1ccccc1)(c1ccccc1)n1ccnc1` [Clotrimazole, 1-[(2-chlorophenyl)(diphenyl)methyl]-1H-imidazole, reference compound], the MBC was determined as 0.0014 µg/mL (≈ 0.00406 µM) in [4] (read-out: MBC50); 0.003 µg/mL (≈ 0.0087 µM) in [4] (read-out: MBC90); 0.0014 µg/mL (≈ 0.00406 µM) in test [6] (read-out: MBC50); 0.0032 µg/mL (≈ 0.00928 µM) in [6] (read-out: MBC90); 68 µg/mL (≈ 197 µM) in test [7] (ATCC27853, read-out: MBC50); 134 µg/mL (≈ 389 µM) in [7] (ATCC27853, read-out: MBC90). In addition, the MBC in test [8] (read-out: MBC50) is 75 µg/mL (≈ 217 µM); in test [8] (read-out: MBC90), 144 µg/mL (≈ 418 µM). The MIC50 in test [9] is 0.0009 µg/mL (≈ 0.00261 µM); in test [11] it was 0.00084 µg/mL (≈ 0.00244 µM); in [12], 40 µg/mL (≈ 116 µM); in test [13], 45 µg/mL (≈ 130 µM). Besides, the MIC90 was determined as 0.0016 µg/mL (≈ 0.00464 µM) in [9], 0.00145 µg/mL (≈ 0.0042 µM) in [11], 75 µg/mL (≈ 217 µM) in [12] and 85 µg/mL (≈ 246 µM) in test [13].

In general, Ki refers to a dissociation constant, usually derived from enzyme kinetics or from competition with a known ligand. A higher Ki goes with lower affinity. A word on the IC50: it is the concentration at which inhibition is half-maximal. Read a low IC50 as higher potency. A word on the MIC90: it is the lowest concentration that inhibits either 90% of growth or 90% of the strains tested, depending on the study. Read a high MIC90 as lower susceptibility. Broadly, the MIC50 is an inhibitory concentration at the 50% level, which refers to growth in some studies and to a panel of isolates in others. A lower MIC50 goes with greater potency.

The values above are taken from paper PMC3734177, “Design, Synthesis, Evaluation and Thermodynamics of 1-Substituted Pyridylimidazo[1,5-a]Pyridine Derivatives as Cysteine Protease Inhibitors” (PLoS ONE, 2013).
